Consider six compounds from patent US6602865B1, “Pyridazino(4,5-b)(1,5)oxazepinone, -thiazepinone and -diazepinone compounds” (IVAX Drug Research Institute, Ltd., priority 1998, dated 2003).

The test system of assay [1] is AMPA. The assay is described as follows: AMPA-induced spreading depression of chick retina. Particulars: 20 μM. The method, then:
The AMPA antagonistic effect of the compounds was also tested on spreading depression of chick retina (Sheardown, M. J.: Brain Res., 1993, 607, 189) in a concentration of 20 μM.

Assay [2] deals with scopolamine-induced memory-deficit in rats. The assay is described as follows: Passive avoidance test, scopolamine-induced memory deficit in rats. It counts as in vivo, rat. The settings on record: oral dose 50 mg/kg. How it is done:
The memory-enhancing effect of the compounds according to the invention was measured by counter-balancing the scopolamine-induced memory-deficit in rats, with oral doses of 50 mg/kg, in the passive avoidance test published by Cumin, R. et al. [Psychopharmacology, 78, 104 (1982)].

As for `Cn1ncc2c(c1=O)SCCNC2C(=O)c1ccccc1` (stereo not shown) [Example 3, 5-Benzoyl-8-methyl-2,3,4,5-tetrahydro-9(8H)-pyridazino[4,5-b][1,5]thiazepinone], in assay [1], the “Antagonistic effect on AMPA-induced spreading depression (%)” value (shortened to “Antagonistic effect … (%)”) was determined as 10%.

With `Cn1ncc2c(c1=O)OCCNC2Cc1ccccc1` (stereo not shown) [Example 4, 5-Benzyl-8-methyl-2,3,4,5-tetrahydro-9(8H)-pyridazino[4,5-b][1,5]oxazepinone], in assay [1], the “Antagonistic effect … (%)” value was 17%.

Take `O=c1c2c(cnn1CC=Cc1ccccc1)N(Cc1ccccc1)CCCO2` [Example 7, 5-Benzyl-8-cynnamyl-2,3,4,5-tetrahydro-9(8H)-pyridazino[4,5-b][1,5]oxazepinone]: the “Memory improvement compared to amnesic control (%)” value in assay [2] was found to be 250%. In addition, the “Antagonistic effect … (%)” value in assay [1] was 16%.

In the case of `Cn1ncc2c(c1=O)SCCNC2Cc1ccccc1` (stereo not shown) [Example 11, 5-Benzyl-8-methyl-2,3,4,5-tetrahydro-9(8H)-pyridazino[4,5-b][1,5]thiazepinone], the “Antagonistic effect … (%)” value in assay [1] is reported as 28%.

As for `Cn1ncc2c(c1=O)SCCNC2Cc1ccc(Cl)cc1` (stereo not shown) [Example 12, 5-(4-Chlorobenzyl)-8-methyl-2,3,4,5-tetrahydro-9(8H)-pyridazino[4,5-b]-[1,5]thiazepinone], the “Antagonistic effect … (%)” value in assay [1] is 32%.

Take `O=c1c2c(cnn1-c1ccccc1)C(Cc1ccccc1)NCCS2` (stereo not shown) [Example 13, 5-Benzyl-8-phenyl-2,3,4,5-tetrahydro-9(8H)-pyridazino[4,5-b]-[1,5]thiazepinone]: in assay [1], the “Antagonistic effect … (%)” value is recorded as 48%.
